# Source: patent publication US9656953B2, “Inhibition of cell proliferation” (University of South Florida, priority 2005, dated 2017)
# “Also recorded” adds a separate entry of the source.
# Legend:
# PC3 prostate cell line = assay: BrdU proliferation assay, PC3; type: cell-based
# Procedure: (§1) Proliferation assays. Bromodeoxyuridine (BrdU) labeling kits were obtained from Roche Biochemicals (Indianapolis, Ind.). Cells were plated in poly-D-lysine coated chamber slides at a density of 10,000 cells per well and rendered quiescent by serum starvation for 24 hours. Cells were then re-stimulated with serum in the presence or absence of the indicated drugs for 18 h. S-phase cells were visualized by microscopy and quantitated by counting 3 fields of 100 in quadruplicate.
# Prostate cell lines LNCaP and PC3 both contain mutations in K-Ras and PTEN genes.
# [1] = system: U87MG glioblastoma cell line; assay: BrdU incorporation, S-phase entry, U87MG; type: cell-based; conditions: null for p16 and PTEN
# Procedure: as §1
# A375 melanoma cell line = assay: BrdU incorporation, S-phase entry, A375; type: cell-based; conditions: V600E B-Raf
# Procedure: as §1
# A V600E mutation in the B-Raf oncogene is associated with 66% of melanomas and leads to an over-activation of phospho-Erk signaling. The A375 melanoma cell line harbors the V600E B-Raf mutation. Using the methods of the preceding examples, 3a was inhibited 58% of S-phase entry in this cell line.
# Raf-1 = biological target: T1, Raf-1 (Homo sapiens, UniProt P04049); assay: In vitro kinase assay, Raf-1; type: biochemical
# T1 construct: purchased Upstate Signaling, Charlottesville, Va; (Raf-1); QED Bioscience, San Diego, Calif; (Rb)
# Procedure: In vitro kinase assay. The kinase reaction for Raf-1 was carried out with 100 nanograms (ng) of Raf-1 (Upstate Signaling, Charlottesville, Va.), 0.5 μg of full-length Rb protein (QED Bioscience, San Diego, Calif.) as the substrate, 10 μM ATP, 10 μCi of [γ-^32P] ATP in the kinase assay buffer in the presence or absence of the drugs at 30° C. for 30 minutes. Cyclin D and E kinase assays are described in (Dasgupta 2004).
# Rb:Raf-1 binding = biological target: T2, Rb:Raf-1 binding (Homo sapiens, UniProt P04049+P06400); assay: GST-Rb/GST-Raf-1 ELISA; conditions: concentration that inhibits the Rb:Raf-1 binding by 50%, triplicate; read-out: IC50 (nM), inhibition of the Rb:Raf-1 binding
# T2 construct: a glutathione S-transferase (GST) Raf-1 (1-149aa) overnight at 4° C; made in house
# Procedure: In vitro library screening assays. Enzyme Linked ImmunoSorbent Assay (ELISA) 96-well plates were coated with 1 μg/mL of a glutathione S-transferase (GST) Raf-1 (1-149aa) overnight at 4° C. Subsequently the plates were blocked and GST Rb at 20 μg/mL was rotated at room temperature (RT) for 30 minutes in the presence or absence of the compounds at 20 micromolar (μM). GST-Rb +/− compounds were then added to the plate and incubated for 90 minutes (min) at 37° C. The amount of Rb bound to Raf-1 was detected by Rb polyclonal antibody (Santa Cruz Biotechnology, Santa Cruz, Calif.) 1:1000 incubated for 60 min at 37° C. Donkey-anti-rabbit-IgG-HRP (1:10,000) was added to the plate and incubated at 37° C. for 60 minutes. The color was developed with orthophenylenediamine (Sigma, St. Louis, Mo.) and the reaction was terminated with 3 molar (M) H2SO4. Absorbance was read at 490 nanometers (nm). To determine disruption of Rb to E2F1, Phb, or HDAC1 the above protocol was used with the exception of coating GST Rb on the ELISA plate and adding the drugs in the presence or absence of GST E2F1, Phb, or HDAC1. […] Prohibitin monoclonal antibody was used at 1:1000 to detect the amount of Rb bound to Prohibitin. For disruption of MEK-Raf-1 binding ELISAs, Raf-1 1 microgram/milliliter (μg/mL) was coated on the plate and GST-MEK (20 μg/mL) was incubated +/− the compounds for 30 minutes at room temperature. Mek1 polyclonal antibody was used at 1:1000 to detect the binding of Raf-1 to Mek1. The IC50 concentrations for the Rb:Raf-1 inhibitors were determined by plotting with Origin 7.5 software (Origin, Northampton, Mass.).
# A screen was developed to identify small molecule inhibitors of the Rb:Raf-1 interaction. A diversity set, comprising 1981 compounds (National Cancer Institute, Bethesda, Md.) was examined using a glutathione S-transferase-retinoblastoma/glutathione S-transferase-Raf-1 kinase Enzyme-Linked ImmunoSorbent Assay screen (GST-Rb/GST-Raf-1 ELISA).
# [2] = system: binding of Raf-1 to Mek1/2; assay: IP-western, A-549 cells, Raf-1-Mek1/2; type: cell-based, human
# Source text: Lysate preparation, pmmunoprecipitation, and pestern plotting.
# A549-sh8 tumors = assay: A549-sh8 (Rb shRNA) xenograft in nude mice; type: in vivo; conditions: 150 mpk orally
# Procedure: Animal Studies. Nude mice (Charles River, Wilminton, Mass., USA) were maintained in accordance with Institutional Animal Care and Use Committee (IAUCUC) procedures and guidelines. A549 cells were harvested and resuspended in PBS, and then injected s.c. into the right and left flanks (10×10^6 cells per flank) of 8-week old female nude mice as reported previously (Sun 99). When tumors reached about 100-200 mm^3, animals were dosed intraperitoneally i.p. or orally by gavage with 0.1 mL solution once daily. Control animals received a vehicle, whereas treated animals were given 3a or RRD-238a at the indicated doses. The tumor volumes were determined by measuring the length (l) and the width (w) and calculating the volume (V=lw^2/2) as described previously (Sun 99). Statistical significance between control and treated animals were evaluated using Student's t-test.
# Athymic nude mice were implanted with 1×10^7 A549 cells bilaterally and the tumors were allowed to reach 200 mm^3 in size before treatment began. […] Furthermore, to examine whether 3a could affect the growth of tumors lacking Rb in vivo, sh6 and sh8 (shRNA for Rb) cell lines were implanted into the flanks of nude mice. The mice were given 3a orally at 150 mpk and the control groups were administered the vehicle.
# T1 sequence (P04049 whole entry): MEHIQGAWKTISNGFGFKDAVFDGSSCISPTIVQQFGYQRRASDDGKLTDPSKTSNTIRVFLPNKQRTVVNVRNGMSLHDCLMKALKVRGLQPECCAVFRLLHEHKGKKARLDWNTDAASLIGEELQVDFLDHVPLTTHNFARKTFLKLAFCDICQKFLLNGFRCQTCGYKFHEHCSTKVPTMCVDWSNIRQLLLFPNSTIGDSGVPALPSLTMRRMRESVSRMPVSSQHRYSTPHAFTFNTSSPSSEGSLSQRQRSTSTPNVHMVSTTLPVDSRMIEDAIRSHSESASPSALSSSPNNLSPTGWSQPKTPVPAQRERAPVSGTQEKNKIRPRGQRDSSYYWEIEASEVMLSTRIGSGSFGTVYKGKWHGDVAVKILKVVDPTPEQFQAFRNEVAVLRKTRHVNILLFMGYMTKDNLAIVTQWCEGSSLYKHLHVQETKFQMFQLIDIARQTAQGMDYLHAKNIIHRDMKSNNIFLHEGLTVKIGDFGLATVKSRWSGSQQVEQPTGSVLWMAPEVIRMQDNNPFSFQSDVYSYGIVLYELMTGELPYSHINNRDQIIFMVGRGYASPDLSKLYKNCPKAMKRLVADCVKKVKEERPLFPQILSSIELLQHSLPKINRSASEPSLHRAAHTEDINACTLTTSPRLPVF
# T2 sequence (P04049 1-149 limits assumed): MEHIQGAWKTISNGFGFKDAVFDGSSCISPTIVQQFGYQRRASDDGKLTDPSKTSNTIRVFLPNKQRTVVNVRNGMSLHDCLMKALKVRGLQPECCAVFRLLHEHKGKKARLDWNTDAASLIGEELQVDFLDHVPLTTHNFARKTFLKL
# T2 sequence (P06400 whole entry): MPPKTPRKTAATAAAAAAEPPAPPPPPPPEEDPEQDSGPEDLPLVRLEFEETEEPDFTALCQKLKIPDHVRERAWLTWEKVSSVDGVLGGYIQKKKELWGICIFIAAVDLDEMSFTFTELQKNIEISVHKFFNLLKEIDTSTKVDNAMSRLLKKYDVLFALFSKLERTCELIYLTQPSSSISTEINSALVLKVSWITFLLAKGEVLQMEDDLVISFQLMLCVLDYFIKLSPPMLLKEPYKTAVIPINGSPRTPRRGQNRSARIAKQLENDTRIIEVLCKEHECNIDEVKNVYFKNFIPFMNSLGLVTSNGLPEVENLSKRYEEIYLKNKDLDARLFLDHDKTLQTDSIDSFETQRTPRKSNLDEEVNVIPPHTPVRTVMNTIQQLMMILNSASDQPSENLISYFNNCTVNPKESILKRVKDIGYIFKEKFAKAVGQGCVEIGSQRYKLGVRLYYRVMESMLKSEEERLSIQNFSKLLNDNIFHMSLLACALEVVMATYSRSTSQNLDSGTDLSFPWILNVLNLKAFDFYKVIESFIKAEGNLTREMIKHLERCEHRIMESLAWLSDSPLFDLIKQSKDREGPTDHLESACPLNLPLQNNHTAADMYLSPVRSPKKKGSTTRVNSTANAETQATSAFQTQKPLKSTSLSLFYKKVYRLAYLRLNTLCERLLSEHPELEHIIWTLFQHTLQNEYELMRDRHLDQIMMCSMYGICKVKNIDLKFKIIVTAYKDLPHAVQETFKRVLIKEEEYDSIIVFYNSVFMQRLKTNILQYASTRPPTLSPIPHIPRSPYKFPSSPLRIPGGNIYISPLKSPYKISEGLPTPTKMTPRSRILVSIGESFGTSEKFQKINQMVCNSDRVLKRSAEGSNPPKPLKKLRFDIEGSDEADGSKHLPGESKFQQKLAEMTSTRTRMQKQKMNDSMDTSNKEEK
structure (smiles),measurement,setting,value
Cl.N=C(N)SCc1ccc(Cl)cc1Cl [Compound 3a],"inhibition of proliferation, PC3",PC3 prostate cell line,35%
same,"S-phase entry, U87MG",[1],inhibited S-phase entry
same,"inhibition of S-phase entry, A375",A375 melanoma cell line,58%
same,Raf-1 kinase activity,Raf-1,does not inhibit; also recorded: did not affect the kinase activities
same,IC50,Rb:Raf-1 binding,77 nM
same,serum-mediated binding of Raf-1 to Mek1/2,[2],not affected
same,"tumor growth, A549-sh8 tumors lacking Rb",A549-sh8 tumors,unable to inhibit tumor growth; also recorded: did not respond
